Source: patent US20100196365A1, “USE OF IMIDAZOQUINOLINES FOR THE TREATMENT OF EGFR DEPENDENT DISEASES OR DISEASES THAT HAVE ACQUIRED RESISTANCE TO AGENTS THAT TARGET EGFR FAMILY MEMBERS” (priority 2007, published 2010)

What was measured:
[1] = tested on: NCI-H1975 tumors; conditions: for in vivo effect on tumor growth: s.c. NCI-H1975 tumors, athymic mice, p.o. (FIG. 3)
Method: Non small cell lung carcinoma cell lines with amplified EGFR, but refractory to EGFR inhibition therapy, are valuable models to test the sensitivity of PI3K inhibitors like the compounds of formula I in such genetic background. […] The in vivo antitumor activity of PI3K inhibitors like the compounds of formula I is tested against this EGFR driven and inhibitor resistant tumor model (FIG. 3).

[2] = tested on: panel of breast tumor cell lines; assay: antiproliferative activity in a panel of breast cancer cell lines (Methylene blue viable cell detection assay); type: cell-based, human
Method: The indicated cell lines are incubated with increasing amount of Compound A, and effect on the proliferation assessed with a Methylene blue viable cell detection assay. The cell lines indicated with a red asterisk are the ones in which cell death is observed (i.e. for which the absorbance observed for treated cells was lower than the original inoculum).
(§1) ErB-B2 (HER2) is often overexpressed in breast and ovarian cell lines.

[3] = tested on: NCI-H358 cell line; assay: proliferation assay (methylene blue assay) with NCI-H358 tumor cells; type: cell-based; conditions: Homo sapiens, read-out: Growth Inhibitory 50 (GI50)
[4] = tested on: NCI-H1975 cell line; assay: proliferation assay in EGFR inhibitor resistant NCI-H1975 cell line; type: cell-based; conditions: Homo sapiens; NCI-H1975 cell line (HER1 T790M)
[5] = tested on: BT474 tumors; assay: antitumor activity against s.c. BT474 xenografts; type: in vivo, mice; conditions: BT474 subcutaneous xenografts, 45 mg/kg, po, once per day (FIG. 6)
Source text: as §1

CCN1CCN(Cc2ccc(-c3cc4c(N[C@H](C)c5ccccc5)ncnc4[nH]3)cc2)CC1 [NVP-AEE788, reference compound]
in vivo effect on tumor growth [1]: no significant inhibition on tumor growth

Cn1c(=O)n(-c2ccc(C(C)(C)C#N)cc2)c2c3cc(-c4cnc5ccccc5c4)ccc3ncc21 [Compound A, 2-methyl-2-[4-(3-methyl-2-oxo-8-quinolin-3-yl-2,3-dihydro-imidazo[4,5-c]quinolin-1-yl)-phenyl]-propionitrile]
GI50 ([2]; Homo sapiens, panel of breast tumor cell lines containing or not ErbB2 amplification, read-out: median GI50): 11.1 nM | cell death ([2]; cell lines that overexpressed ErbB2 (FIG. 5)): induces cell death | GI50 [3]: 31 nM | GI50 [4]: 11.4 nM | tolerability (body weight, control vs treatment groups) ([1]; mouse, in vivo): well tolerated | in vivo effect on tumor growth [1]: causes in vivo tumor growth inhibition | in vivo antitumor effect [5]: tumor regression

C#Cc1cccc(Nc2ncnc3cc(OCCOC)c(OCCOC)cc23)c1 [erlotinib, reference compound]
in vivo effect on tumor growth [1]: no significant inhibition on tumor growth
